Results from US8211947B2, “Composition and method for treating and preventing musculoskeletal and connective tissue disorders” (priority 2008, dated 2012).

Columns and labels:
[1] = in fish and flax seed oils; cited from earlier work
[2] = natural vitamin K; cited from earlier work
rheumatoid arthritis = assay: Case study: patient with rheumatoid arthritis treated orally; assay type: in vivo, human; conditions: same patient, NSAIDs taken during the first 5 weeks of the disease onset
Experimental: This treatment was complemented with the regular practice of moderate physical exercises every 2-3 days, including exercises with weights, the application of cold or hot compresses, relaxation techniques, elevation of affected body parts, and at least 8 hours of sleep. Pain was treated with acetaminophen when needed. […] Then, the Omega 3-6-9 supplement was removed from the treatment and 100 mg niacin was added (Rite Aid Corporation, Harrisburg, Pa., USA) once a day during a week, twice a day for another week and 3 times daily for one more week (to a final dose of 300 mg/day). […] They never took DMARDs or steroids.

[3] = tested on: undercarboxylated osteocalcin; conditions: healthy subjects, per day; cited from earlier work
osteoarthritis = conditions: subjects with OA, 3 g per day; cited from earlier work

Molecule: vitamin K
- solubility [1]: soluble
- safe dose [2]: up to 15 milligrams per day

Molecule: O=C(O)Cc1ccccc1Nc1c(Cl)cccc1Cl [diclofenac]
- benefit of NSAIDs (rheumatoid arthritis): without any significative beneficial result

Molecule: CC1=C(C/C=C(\C)CCC[C@H](C)CCC[C@H](C)CCCC(C)C)C(=O)c2ccccc2C1=O [vitamin K1, 2-methyl-3-phytyl-1-4-naphthoquinone]
- daily intake at which circulating undercarboxylated osteocalcin began to decrease [3]: 300 µg

Molecule: NC(=O)c1cccnc1 [nicotinamide]
- NSAID medication and joint mobility compared with placebo controls (osteoarthritis): reduced their non-steroidal anti-inflammatory (NSAID) medication and increased joint mobility significantly

Molecule: CC(C)Cc1ccc(C(C)C(=O)O)cc1 (stereo not drawn) [ibuprofen]
- benefit of NSAIDs (rheumatoid arthritis): without any significative beneficial result
